According to ChEMBL document CHEMBL3045535, “Evaluation of lufenuron as a chemosterilant against fruit flies of the genus Anastrepha (Diptera: Tephritidae)” (2010):
Active and inactive are the calls of the source. No cut-off for these calls is given here.

What was measured:
[1] = system: Anastrepha serpentina; assay: Reduction of fertility in 7 days old adult of Anastrepha serpentina assessed as reduction of egg hatching at 30 mg/g treated with diet measured after 9 days oviposition; assay type: functional; set-up: scale not given: the % may be the effect or the level left
[2] = system: Anastrepha striata; assay: Reduction of fertility in 7 days old adult of Anastrepha striata assessed as reduction of egg hatching at 0.1 mg/g treated with diet measured after 1 day oviposition; assay type: functional; set-up: scale not given: the % may be the effect or the level left
[3] = system: Anastrepha striata; assay: Reduction of fertility in 7 days old adult of Anastrepha striata assessed as reduction of egg hatching at 0.5 mg/g treated with diet measured after 1 day oviposition; assay type: functional; set-up: scale not given: the % may be the effect or the level left
[4] = system: Anastrepha ludens; assay: Reduction of fertility in 7 days old adult of Anastrepha ludens assessed as reduction of egg hatching at 0.5 mg/g treated with diet measured after 3 days oviposition; assay type: functional; set-up: scale not given: the % may be the effect or the level left
[5] = system: Anastrepha obliqua; assay: Reduction of fertility in 7 days old adult of Anastrepha obliqua assessed as reduction of egg hatching at 1 mg/g treated with diet measured after 11 days oviposition; assay type: functional; set-up: scale not given: the % may be the effect or the level left
[6] = system: Anastrepha serpentina; assay: Reduction of fertility in 7 days old adult of Anastrepha serpentina assessed as reduction of egg hatching at 0.1 mg/g treated with diet measured after 5 days oviposition; assay type: functional; set-up: scale not given: the % may be the effect or the level left
[7] = system: Anastrepha striata; assay: Effect on fertility in 7 days old adult female of Anastrepha striata at 30 mg/g treated with diet after 24 hr in presence of untreated adult male of Anastrepha striata; assay type: functional, organism-based
[8] = system: Anastrepha ludens; assay: Reduction of fertility in 7 days old adult of Anastrepha ludens assessed as reduction of egg hatching at 10 mg/g treated with diet measured after 3 days oviposition; assay type: functional; set-up: scale not given: the % may be the effect or the level left
[9] = system: Anastrepha obliqua; assay: Reduction of fertility in 7 days old adult of Anastrepha obliqua assessed as reduction of egg hatching at 0.1 mg/g treated with diet measured after 11 days oviposition; assay type: functional; set-up: scale not given: the % may be the effect or the level left
[10] = system: Anastrepha striata; assay: Reduction of fertility in 7 days old adult of Anastrepha striata assessed as reduction of egg hatching at 30 mg/g treated with diet measured after 9 days oviposition; assay type: functional; set-up: scale not given: the % may be the effect or the level left
[11] = system: Anastrepha obliqua; assay: Reduction of fertility in 7 days old adult of Anastrepha obliqua assessed as reduction of egg hatching at 30 mg/g treated with diet measured after 9 days oviposition; assay type: functional; set-up: scale not given: the % may be the effect or the level left
[12] = system: Anastrepha ludens; assay: Reduction of fertility in 7 days old adult of Anastrepha ludens assessed as reduction of egg hatching at 5 mg/g treated with diet measured after 7 days oviposition; assay type: functional; set-up: scale not given: the % may be the effect or the level left
[13] = system: Anastrepha obliqua; assay: Reduction of fertility in 7 days old adult of Anastrepha obliqua assessed as reduction of egg hatching at 0.1 mg/g treated with diet measured after 5 days oviposition; assay type: functional; set-up: scale not given: the % may be the effect or the level left
[14] = system: Anastrepha ludens; assay: Reduction of fertility in 7 days old adult of Anastrepha ludens assessed as reduction of egg hatching at 1 mg/g treated with diet measured after 11 days oviposition; assay type: functional; set-up: scale not given: the % may be the effect or the level left
[15] = system: Anastrepha serpentina; assay: Reduction of fertility in 7 days old adult of Anastrepha serpentina assessed as reduction of egg hatching at 30 mg/g treated with diet measured after 7 days oviposition; assay type: functional; set-up: scale not given: the % may be the effect or the level left
[16] = system: Anastrepha striata; assay: Reduction of fertility in 7 days old adult of Anastrepha striata assessed as reduction of egg hatching at 30 mg/g treated with diet measured after 3 days oviposition; assay type: functional; set-up: scale not given: the % may be the effect or the level left
[17] = system: Anastrepha ludens; assay: Reduction of fertility in 7 days old adult of Anastrepha ludens assessed as reduction of egg hatching at 1 mg/g treated with diet measured after 7 days oviposition; assay type: functional; set-up: scale not given: the % may be the effect or the level left
[18] = system: Anastrepha ludens; assay: Reduction of fertility in 7 days old adult of Anastrepha ludens assessed as reduction of egg hatching at 0.5 mg/g treated with diet measured after 11 days oviposition; assay type: functional; set-up: scale not given: the % may be the effect or the level left
[19] = system: Anastrepha striata; assay: Reduction of fertility in 7 days old adult of Anastrepha striata assessed as reduction of egg hatching at 5 mg/g treated with diet measured after 7 days oviposition; assay type: functional; set-up: scale not given: the % may be the effect or the level left
[20] = system: Anastrepha ludens; assay: Effect on fertility in 7 days old adult male of Anastrepha ludens at 30 mg/g treated with diet after 24 hr in presence of untreated adult female of Anastrepha ludens; assay type: functional, organism-based
[21] = system: Anastrepha ludens; assay: Effect on fertility in 7 days old adult female of Anastrepha ludens at 30 mg/g treated with diet after 24 hr in presence of untreated adult male of Anastrepha ludens; assay type: functional, organism-based
[22] = system: Anastrepha serpentina; assay: Reduction of fertility in 7 days old adult of Anastrepha serpentina assessed as reduction of egg hatching at 30 mg/g treated with diet measured after 1 day oviposition; assay type: functional; set-up: scale not given: the % may be the effect or the level left
[23] = system: Anastrepha obliqua; assay: Reduction of fertility in 7 days old adult of Anastrepha obliqua assessed as reduction of egg hatching at 0.5 mg/g treated with diet measured after 11 days oviposition; assay type: functional; set-up: scale not given: the % may be the effect or the level left
[24] = system: Anastrepha serpentina; assay: Effect on fertility in 7 days old adult female of Anastrepha serpentina at 30 mg/g treated with diet after 24 hr in presence of untreated adult male of Anastrepha serpentina; assay type: functional, organism-based
[25] = system: Anastrepha striata; assay: Reduction of fertility in 7 days old adult of Anastrepha striata assessed as reduction of egg hatching at 10 mg/g treated with diet measured after 5 days oviposition; assay type: functional; set-up: scale not given: the % may be the effect or the level left
[26] = system: Anastrepha serpentina; assay: Reduction of fertility in 7 days old adult of Anastrepha serpentina assessed as reduction of egg hatching at 5 mg/g treated with diet measured after 5 days oviposition; assay type: functional; set-up: scale not given: the % may be the effect or the level left
[27] = system: Anastrepha ludens; assay: Reduction of fertility in 7 days old adult of Anastrepha ludens assessed as reduction of egg hatching at 0.1 mg/g treated with diet measured after 11 days oviposition; assay type: functional; set-up: scale not given: the % may be the effect or the level left
[28] = system: Anastrepha serpentina; assay: Reduction of fertility in 7 days old adult of Anastrepha serpentina assessed as reduction of egg hatching at 10 mg/g treated with diet measured after 3 days oviposition; assay type: functional; set-up: scale not given: the % may be the effect or the level left
[29] = system: Anastrepha striata; assay: Reduction of fertility in 7 days old adult of Anastrepha striata assessed as reduction of egg hatching at 1 mg/g treated with diet measured after 3 days oviposition; assay type: functional; set-up: scale not given: the % may be the effect or the level left
[30] = system: Anastrepha serpentina; assay: Reduction of fertility in 7 days old adult of Anastrepha serpentina assessed as reduction of egg hatching at 30 mg/g treated with diet measured after 11 days oviposition; assay type: functional; set-up: scale not given: the % may be the effect or the level left
[31] = system: Anastrepha striata; assay: Reduction of fertility in 7 days old adult of Anastrepha striata assessed as reduction of egg hatching at 5 mg/g treated with diet measured after 1 day oviposition; assay type: functional; set-up: scale not given: the % may be the effect or the level left
[32] = system: Anastrepha serpentina; assay: Reduction of fertility in 7 days old adult of Anastrepha serpentina assessed as reduction of egg hatching at 30 mg/g treated with diet measured after 3 days oviposition; assay type: functional; set-up: scale not given: the % may be the effect or the level left
[33] = system: Anastrepha obliqua; assay: Reduction of fertility in 7 days old adult of Anastrepha obliqua assessed as reduction of egg hatching at 1 mg/g treated with diet measured after 3 days oviposition; assay type: functional; set-up: scale not given: the % may be the effect or the level left
[34] = system: Anastrepha serpentina; assay: Reduction of fertility in 7 days old adult of Anastrepha serpentina assessed as reduction of egg hatching at 1 mg/g treated with diet measured after 1 day oviposition; assay type: functional; set-up: scale not given: the % may be the effect or the level left
[35] = system: Anastrepha ludens; assay: Effect on fecundity in 7 days old adult of Anastrepha ludens at 0.1 to 30 mg/g treated with diet after 24 hr; assay type: functional, organism-based
[36] = system: Anastrepha ludens; assay: Reduction of fertility in 7 days old adult of Anastrepha ludens assessed as reduction of egg hatching at 30 mg/g treated with diet measured after 5 days oviposition; assay type: functional; set-up: scale not given: the % may be the effect or the level left
[37] = system: Anastrepha serpentina; assay: Reduction of fertility in 7 days old adult of Anastrepha serpentina assessed as reduction of egg hatching at 0.5 mg/g treated with diet measured after 3 days oviposition; assay type: functional; set-up: scale not given: the % may be the effect or the level left
[38] = system: Anastrepha striata; assay: Reduction of fertility in 7 days old adult of Anastrepha striata assessed as reduction of egg hatching at 0.5 mg/g treated with diet measured after 11 days oviposition; assay type: functional; set-up: scale not given: the % may be the effect or the level left
[39] = system: Anastrepha obliqua; assay: Reduction of fertility in 7 days old adult of Anastrepha obliqua assessed as reduction of egg hatching at 5 mg/g treated with diet measured after 3 days oviposition; assay type: functional; set-up: scale not given: the % may be the effect or the level left
[40] = system: Anastrepha obliqua; assay: Reduction of fertility in 7 days old adult of Anastrepha obliqua assessed as reduction of egg hatching at 5 mg/g treated with diet measured after 11 days oviposition; assay type: functional; set-up: scale not given: the % may be the effect or the level left

O=C(NC(=O)c1c(F)cccc1F)Nc1cc(Cl)c(OC(F)(F)C(F)C(F)(F)F)cc1Cl (racemic) [LUFENURON]
Activity [1]: 76.7% | Activity [2]: 48.7% | Activity [3]: 13.3% | Activity [4]: 12% | Activity [5]: 0.7% | Activity [6]: 74.6% | Activity [7]: inactive | Activity [8]: 4.7% | Activity [9]: 10.7% | Activity [10]: 7.3% | Activity [11]: 1.3% | Activity [12]: 28% | Activity [13]: 8.7% | Activity [14]: 40% | Activity [15]: 54.2% | Activity [16]: 8.7% | Activity [17]: 20% | Activity [18]: 26.7% | Activity [19]: 0.7% | Activity [20]: inactive | Activity [21]: inactive | Activity [22]: 49.2% | Activity [23]: 4% | Activity [24]: inactive | Activity [25]: 2% | Activity [26]: 83.1% | Activity [27]: 66.7% | Activity [28]: 34.4% | Activity [29]: 8% | Activity [30]: 78% | Activity [31]: 3.3% | Activity [32]: 72.3% | Activity [33]: 0% | Activity [34]: 42.7% | Activity [35]: inactive | Activity [36]: 4% | Activity [37]: 87.3% | Activity [38]: 28.7% | Activity [39]: 2.7% | Activity [40]: 0%
